Laboratory results reported in paper PMC9688808, “Discovery of Novel Lin28 Inhibitors to Suppress Cancer Cell Stemness” (Cancers, 2022).

Test system: DUNE cells
Assay: Real-time qPCR of CSC and neuroendocrine biomarkers in DUNE cells
Assay type: cell-based
Conditions: 20 uM, 48 h
Description: (§1) There are several standard molecular techniques, including real-time qPCR, flow cytometry, cell proliferation, colony formation, and immunoblotting assays, that have been reported previously by our lab.
Figure 6 Lin28 inhibitors block the expression of NE and CSC biomarkers. DUNE cells were treated with 20 uM of the indicated compound for 48 h. Real-time qPCR measured RNA levels of neuroendocrine (A) and CSC (B) biomarkers. Three biological replicates were performed and all results are presented as mean +/− SD. p-value ≤ 0.05—(*); ≤0.01—(**); ≤0.001—(***).

Compound	expression of CSC markers (IGF2BP1, CDH2, FOXD3, HEY1, ALDH1A2, CDK6, FOXC1, SIX2, ID4)	expression of neuroendocrine markers (ASCL1, CHGB, SCGN, SYP, STT4)	suppression of CDH2 expression	suppression of FOXD3 expression
O=c1[nH]c(Nc2ccccc2O)cs1 [Ln15]	reductions	blocked	–	–
CC(=O)N(C)c1cccc(-c2ccc3nnc(C)n3n2)c1 [compound 1632, reference compound]	variable mild inhibitory effects or no inhibition	–	–	–
CCc1cc(=O)[nH]c(Nc2cc(Cl)ccc2O)n1 [Ln7]	reductions	blocked	–	–
O=c1cccc(-c2nc3cc(F)c(O)cc3c(=O)[nH]2)[nH]1 [Ln115]	reductions	blocked	up to 90%	up to 90%
CCOc1cccc2c1N[C@@H](c1ccc(C(=O)O)cc1)[C@H]1CC=C[C@@H]21 [Li71, reference compound]	variable mild inhibitory effects or no inhibition	–	–	–

Biological target: T1, Lin28A ZKD (Homo sapiens, UniProt Q9H9Z2)
T1 construct: Lin28A ZKD (aa121-187); His-tag; made in house; host or cells: Escherichia coli BL21
T1 sequence (Q9H9Z2 121-187): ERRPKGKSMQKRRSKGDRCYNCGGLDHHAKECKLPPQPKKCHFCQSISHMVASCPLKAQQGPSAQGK
Assay: EMSA, Lin28A ZKD–Let-7 complex
Assay type: binding
Conditions: compounds 100–1200 uM
Description: (§2) EMSA followed the standard protocols we published with minor modifications. An IRDye800CWN-labeled Let-7 RNA probe was purchased from IDT (Coralville, IA, USA). Lin28B or Lin28A proteins were incubated with […] of probe in a standard 20 uL EMSA reaction in a reaction buffer containing 20 mM HEPES-NaOH, pH 7.4, 2 mM DTT, 3 mM MgCl2, 0.05% NP-40, protease inhibitors, and 0.1 ug poly[dI:dC]. After incubation for 30 min at 37 °C, reactions were loaded onto 4% non-denatured polyacrylamide gel in 0.5× TBE buffer. The RNA oligo bands were visualized by using the Li-Cor Odyssey 9120 Infrared Imaging System.
(§3) Figure 5 Lin28 inhibitors block the Lin28A isoform. (A) EMSA used 10 nM of IR800DyeCWN-labeled Let-7 probe (lane 1), 0.5 uM Lin28A ZKD protein with 10 nM of labeled Let-7 probe (lane 2), or Lin28A ZKD, labeled Let-7 probe and 100× non-labeled competitor probe (lane 3). EMSA used Lin28A ZKD, labeled Let-7 probe, and 100–1200 uM of indicated compounds (lanes 4–10). (B) FP assays were performed by using 10 uM of Lin28A ZKD, 1 nM of FAM-labeled Let-7 probe, and 1 nM–200 uM of compounds. (C) Lin28A-positive IGROV1 cells were treated with 20 uM of the indicated compound for 48 h. Real-time qPCR measured RNA levels of Let-7d, SOX2, and HMGA2. Three biological replicates were performed and all results are presented as mean +/− SD. p-value ≤ 0.05—(*); ≤0.01—(**); ≤0.001—(***).

Compound	concentration that inhibits formation of Lin28A ZKD–Let-7 complex in EMSA
O=c1[nH]c(Nc2ccccc2O)cs1 [Ln15]	100 to 400 µM
CC(=O)N(C)c1cccc(-c2ccc3nnc(C)n3n2)c1 [compound 1632, reference compound]	> 1200 µM
CCc1cc(=O)[nH]c(Nc2cc(Cl)ccc2O)n1 [Ln7]	> 1200 µM
O=c1cccc(-c2nc3cc(F)c(O)cc3c(=O)[nH]2)[nH]1 [Ln115]	100 to 400 µM
CCOc1cccc2c1N[C@@H](c1ccc(C(=O)O)cc1)[C@H]1CC=C[C@@H]21 [Li71, reference compound]	100 to 400 µM

Test system: IGROV1 cells
Assay: Real-time qPCR of Let-7d, SOX2, HMGA2 in IGROV1 cells
Assay type: cell-based
Conditions: IGROV1 cells (Lin28A-positive), 20 uM, 48 h
Description: (§4) The DUNE cell line and DUNE cells with Lin28B knockout by CRISPR (DUNE (KO)) were reported in our previous studies. IGROV1 cells were obtained from Sigma-Aldrich (St. Louis, MO, USA). DUNE and DUNE (KO) cells were cultured in Dulbecco’s Modified Eagle Medium with high Glucose/L-glutamine (DMEM; Hyclone, Logan, UT, USA) and 10% of fetal bovine serum (FBS; Gibico, Waltham, MA, USA). IGROV1 cells were cultured in Roswell Park Memorial Institute 1640 (RPMI-1640; Hyclone) medium with 10% FBS. All the cell lines were incubated in 5% CO2 at 37 °C and were tested for mycoplasma contamination monthly and cell line authentication was tested by short tandem repeat profiling by ATCC.
as §1, §3

Compound	upregulation of Let-7	Let-7 microRNA levels
O=c1[nH]c(Nc2ccccc2O)cs1 [Ln15]	10 fold	–
CC(=O)N(C)c1cccc(-c2ccc3nnc(C)n3n2)c1 [compound 1632, reference compound]	–	upregulated
CCOc1cccc2c1N[C@@H](c1ccc(C(=O)O)cc1)[C@H]1CC=C[C@@H]21 [Li71, reference compound]	–	upregulated

Biological target: T2, Lin28B ZKD (Homo sapiens, UniProt Q6ZN17)
T2 construct: His-tagged human Lin28B ZKD (aa110-174); His-tag; made in house; host or cells: Escherichia coli BL21
T2 sequence (Q6ZN17 110-174): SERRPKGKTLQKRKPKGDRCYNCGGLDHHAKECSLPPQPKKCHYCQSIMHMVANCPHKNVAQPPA
Assay: EMSA, Lin28B ZKD–Let-7 complex
Assay type: binding
Conditions: compounds 0–1200 uM
Description: as §2
Figure 3 Lin28 inhibitors block the interaction between Lin28B ZKD and Let-7. (A) EMSA used 10 nM of IR800DyeCWN-labeled let-7 probe (lane 1), 0.5 uM Lin28B ZKD protein with 10 nM of labeled Let-7 probe (lane 2), or Lin28B ZKD, labeled Let-7 probe and 100× non-labelled competitor probe (lane 3). EMSA used Lin28B ZKD, labeled Let-7 probe, and 100–1200 uM of indicated compounds (lanes 4–10). (B) FP assays were performed by using 10 uM of Lin28B ZKD and 1 nM of FAM-labeled Let-7 probe and 1 nM–1000 uM of compounds. (C) Bio-layer interferometry (BLI) assays were performed using 0–25 uM of Ln115 with Avi-tagged Lin28B ZKD protein. (D) Chemical structures of the three lead compounds were shown.

Compound	concentration that disrupts ZKD–Let-7 complex in EMSA	inhibition of ZKD–Let-7 complex in EMSA
O=c1[nH]c(Nc2ccccc2O)cs1 [Ln15]	400 µM	–
CCc1cc(=O)[nH]c(Nc2cc(Cl)ccc2O)n1 [Ln7]	> 1000 µM	–
CCOc1cccc2c1N[C@@H](c1ccc(C(=O)O)cc1)[C@H]1CC=C[C@@H]21 [Li71, reference compound]	–	robust inhibition

Test system: DUNE cells
Assay: Real-time qPCR of Let-7d, SOX2, HMGA2 in DUNE cells
Assay type: cell-based
Conditions: 20 uM, 48 h
Description: as §4, §1
Figure 4 Lin28 inhibitors restore Let-7d expression and suppress SOX2 and HMGA2 genes. DUNE (top) and DUNE (KO) (bottom) cells were treated with 20 uM of the indicated compounds for 48 h. Real-time qPCR measured RNA levels of Let-7d, SOX2, and HMGA2. Three biological replicates were performed and all results are presented as mean +/− SD. p-value ≤ 0.05—(*); ≤0.01—(**); ≤0.001—(***).

Compound	HMGA2 mRNA level	Let-7d expression level	SOX2 mRNA level
O=c1[nH]c(Nc2ccccc2O)cs1 [Ln15]	strongly inhibited	approximately six- to eight-fold	strongly inhibited
CC(=O)N(C)c1cccc(-c2ccc3nnc(C)n3n2)c1 [compound 1632, reference compound]	not	did not show any impacts	not
CCc1cc(=O)[nH]c(Nc2cc(Cl)ccc2O)n1 [Ln7]	strongly inhibited	approximately six- to eight-fold	strongly inhibited
O=c1cccc(-c2nc3cc(F)c(O)cc3c(=O)[nH]2)[nH]1 [Ln115]	strongly inhibited	approximately six- to eight-fold	strongly inhibited
CCOc1cccc2c1N[C@@H](c1ccc(C(=O)O)cc1)[C@H]1CC=C[C@@H]21 [Li71, reference compound]	strongly inhibited	approximately six- to eight-fold	strongly inhibited
